The text below walks through data of patent US10501456B2, “Therapeutic agents for the treatment of HBV infection” (Newave Pharmaceutical Inc., priority 2016, dated 2019).

One series relates to extracellular HBV DNA. Nature of the series: HBV DNA assay (real-time qPCR/TaqMan, HepG2.2.15 cells). In kind it is cell-based. As to conditions: for EC50: Hepatitis B virus, 144 h, six days, supernatant HBV DNA copy number, read-out: EC50 (reduction in HBV DNA levels). The protocol: The assay employs real-time qPCR (TaqMan) to directly measure extracellular HBV DNA copy number. HepG2.2.15 cells were plated in 96-well microtiter plates. Only the interior wells were utilized to reduce “edge effects” observed during cell culture, the exterior wells were filled with complete medium to help minimize sample evaporation. On the following day, the HepG2.2.15 cells were washed and the medium was replaced with complete medium containing various concentrations of a test compound in triplicate. 3TC was used as the positive control, while media alone was added to cells as a negative control (virus control, VC). Three days later, the culture medium was replaced with fresh medium containing the appropriately diluted drug. Six days following the initial administration of the test compound, the cell culture supernatant was collected, treated with pronase and then used in a real-time qPCR/TaqMan assay to determine HBV DNA copy numbers. TDF (tenofovir disoproxil fumarate) is used as a positive control reference. Antiviral activity was calculated from the reduction in HBV DNA levels (IC50).

A further series in a line: Rat PK study. In kind it is in vivo, female Sprague-Dawley rats. Conditions: for AUC(0-t) / Cmax / bioavailability / half-life: female, Sprague-Dawley, plasma, oral dosing; for half-life: read-out: t½ (converted). The protocol:
The pharmacokinetics of compounds were evaluated in female Sprague-Dawley rats via Intravenous and Oral Administration. The iv dose was administered as a slow bolus in the Jugular vein, and oral doses were administered by gavage. The fomulaltion for IV dosing is 20% DMSO and 60% PEG 400 in water, and the PO formulation (suspension) is 1% MC, 0.4% Kolliphor EL in water. The PK time point for the IV arm is 5, 15, 30 min, 1, 2, 4, 6, 8, 12, 24 hours post dose, and for PO arm is 15, 30 min, 1, 2, 4, 6, 8, 12, 24 hours post dose. Approximately 0.2 mL blood will be collected at each time point. Blood of each sample will be transferred into plastic micro centrifuge tubes containing EDTA-K2 and collect plasma within 15 min by centrifugation at 4000 g for 5 minutes in a 4° C. centrifuge. Plasma samples will be stored in polypropylene tubes. The samples will be stored in a freezer at −75±15° C. prior to analysis. Concentrations of compounds in the plasma samples will be analyzed using a LC-MS/MS method. WinNonlin (Phoenix™, version 6.1) or other similar software will be used for pharmacokinetic calculations. The following pharmacokinetic parameters will be calculated, whenever possible from the plasma concentration versus time data: IV administration: C0, CL, Vd, T1/2, AUCinf, AUClast, MRT, Number of Points for Regression; PO administration: Cmax, Tmax, T1/2, AUCinf, AUClast, F %, Number of Points for Regression. The pharmacokinetic data will be described using descriptive statistics such as mean, standard deviation. Additional pharmacokinetic or statistical analysis may be performed at the discretion of the contributing scientist, and will be documented in the data summary

For a further series, the system named is HepG2.2.15 cells. Nature of the series: Compound cytotoxicity assay (CellTiter-Glo). It is filed as cell-based. Conditions: compared with Compound 203 in WO2015113990. The protocol:
(§1) Compounds are diluted with DMSO in 3-fold, 11-point scheme: top conc. of test compound is 30 mM. Add 0.25 μL titrated compounds with Echo 550 to 384-well cytotoxicity assay plates. Add 50 μl HepG2.2.15 cells to each well (4,000 cells per well). The final top conc. is 150 μM after cell addition. For solvent control well (0% effect, ZPE), 0.25 μL DMSO is added (final DMSO conc. is 0.5%). Incubate for 4 days in 37⊏ C, 5% CO2 incubator. After
(§2) 4 day incubation compound cytotoxicity is measured by Promega CellTiter-Glo reagents, briefly: • Equilibrate the Celltiter-Glo reagent to room temperature • Equilibrate the cytotoxicity plates to RT for 20 minutes. • Add 50 μl of CellTiter-Glo Reagent to each well. • Shake 2 minutes on a shaker. • Incubate at room temperature in dark for 10 minutes. • Read plate on Envision Plate reader (0.1 sec integration time/well)
(§3) Such assays, carried out with a range of doses of test compounds, allow the determination of the cellular IC50 of the compounds of the present invention.
On the technique in general: In ATP-based viability assays light output follows the ATP content of the culture.

Series [1] can be described thus: Compound cytotoxicity assay (CellTiter-Glo). In kind it is cell-based. Conditions: human; HepG2.2.15 cells, 4 day incubation, top conc. 150 μM. The protocol:
as §1, §2, §3

In the next series the target is hERG (Homo sapiens, UniProt Q12809). The series can be described thus: hERG assay (automated patch-clamp). In kind it is biochemical. Conditions: for IC10 (10% inhibitory concentration, hERG tail current): automated patch-clamp. The text has this:
The human ether-a-go-go related gene (hERG) encodes the inward rectifying voltage gated potassium channel in the heart (IKr) which is involved in cardiac repolarization. Inhibition of the hERG current causes QT interval prolongation resulting in potentially fatal ventricular tachyarrhythmia called Torsade de Pointes. A number of drugs have been withdrawn from late stage clinical trials due to these cardiotoxic effects, therefore it is important to identify inhibitors early in drug discovery.
The degree of inhibition (%) was obtained by measuring the tail current amplitude, which is induced by a one second test pulse to −40 mV after a two second pulse to +20 mV, before and after drug incubation (the difference current was normalized to control and multiplied by 100 to obtain the percent of inhibition). Concentration (log) response curves were fitted to a logistic equation (three parameters assuming complete block of the current at very high test compound concentrations) to generate estimates of the 10% inhibitory concentration (IC10). The concentration-response relationship of each compound was constructed from the percentage reductions of current amplitude by sequential concentrations.
In general terms: Block of hERG is tested as a sign of cardiac risk.

As usually defined, the EC50 is the concentration needed to bring the measured effect to its halfway point. Usually AUC(0-t) stands for the area under the concentration-time curve up to a stated or last time point. Lower therefore signals less exposure. Broadly, the Cmax is the highest concentration seen after dosing. In general, bioavailability refers to the share of a dose that reaches the circulation, judged against a reference dose that is usually intravenous. Broadly, the IC50 is the concentration at which inhibition is half-maximal. Low readings indicate inhibition by little substance, high ones a need for much substance.

Structures are written as SMILES. Counter-ions that a name gives are not always drawn. A value given as a limit tells only on which side of the number the result lay.

Sequence of hERG (Q12809 whole entry): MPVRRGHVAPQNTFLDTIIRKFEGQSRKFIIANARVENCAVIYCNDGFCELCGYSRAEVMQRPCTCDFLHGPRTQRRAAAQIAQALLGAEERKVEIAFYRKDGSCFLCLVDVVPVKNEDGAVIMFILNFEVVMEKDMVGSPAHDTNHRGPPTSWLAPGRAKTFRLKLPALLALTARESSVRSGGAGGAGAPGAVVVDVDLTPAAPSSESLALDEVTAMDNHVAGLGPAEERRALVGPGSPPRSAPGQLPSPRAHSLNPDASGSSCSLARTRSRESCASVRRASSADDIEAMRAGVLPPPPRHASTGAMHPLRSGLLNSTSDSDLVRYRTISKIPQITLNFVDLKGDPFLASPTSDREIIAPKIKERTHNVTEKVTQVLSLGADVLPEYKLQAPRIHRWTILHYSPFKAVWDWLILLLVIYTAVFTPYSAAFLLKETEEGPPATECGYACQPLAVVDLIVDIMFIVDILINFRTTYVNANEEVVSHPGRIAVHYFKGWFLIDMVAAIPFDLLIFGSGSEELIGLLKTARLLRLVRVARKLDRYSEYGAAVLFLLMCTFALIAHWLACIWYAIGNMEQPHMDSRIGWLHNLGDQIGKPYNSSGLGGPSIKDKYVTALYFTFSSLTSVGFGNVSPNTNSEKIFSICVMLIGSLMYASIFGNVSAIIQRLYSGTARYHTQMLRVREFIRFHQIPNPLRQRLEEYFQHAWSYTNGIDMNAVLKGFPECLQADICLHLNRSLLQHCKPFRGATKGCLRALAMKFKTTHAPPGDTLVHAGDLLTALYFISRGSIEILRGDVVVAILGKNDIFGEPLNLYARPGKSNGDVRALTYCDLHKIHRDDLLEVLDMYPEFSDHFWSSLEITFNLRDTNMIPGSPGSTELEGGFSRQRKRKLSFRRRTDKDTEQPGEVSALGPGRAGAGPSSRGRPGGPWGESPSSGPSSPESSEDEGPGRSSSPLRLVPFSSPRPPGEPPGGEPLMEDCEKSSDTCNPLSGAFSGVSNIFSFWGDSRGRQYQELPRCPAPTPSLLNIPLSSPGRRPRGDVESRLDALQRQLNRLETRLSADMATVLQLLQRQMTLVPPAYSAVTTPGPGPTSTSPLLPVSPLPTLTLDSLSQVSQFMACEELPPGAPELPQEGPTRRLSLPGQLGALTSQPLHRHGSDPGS

On to `COCCCOc1cc2c(cc1Cl)-c1c(F)c(=O)c(C(=O)O)cn1[C@H](C(C)(C)C)C2` (single isomer, unassigned) [Example 2A, (+)-6-(tert-butyl)-10-chloro-1-fluoro-9-(3-methoxypropoxy)-2-oxo-6,7-dihydro-2H-pyrido[2,1-a]isoquinoline-3-carboxylic acid], for which the “anti-HBV potency (in words)” value in the series on extracellular HBV DNA (HBV DNA) is “highly potent”. Moreover, the concentration for a half-maximal effect (EC50) with extracellular HBV DNA was less than 1 nM. Moreover, in “Rat PK study” (20 mg/kg), the AUC(0-t) worked out at 39600 ng·h/mL, the peak concentration (Cmax) was determined as 7550 ng/mL, the bioavailability amounted to 58.6% and the half-life was 4.47 h. Besides, the “oral PK profile (in words)” value in “Rat PK study” (oral dosing of 20 mg/kg, compared with Compound 203 in WO2015113990) is “better oral PK profile”. For the same compound, in the series with HepG2.2.15 cells, the “cytotoxicity (in words)” value is listed as “less cytotoxicity”. In series [1], this compound showed an IC50 at 4 days greater than 150000 nM. For the same compound, the “IC10 (10% inhibitory concentration, hERG tail current)” value on hERG was found to be 10000 nM. Moreover, at hERG (hERG, compared with Compound 203 in WO2015113990), the “cardiac toxicity (in words)” value was “less cardiac toxicity”.
On to `COCCCOc1cc2c(cc1Cl)-c1cc(=O)c(C(=O)O)cn1[C@H](C(C)(C)C)C2` [Compound 203 in WO2015113990, reference compound], for which, in the series on extracellular HBV DNA, the EC50 is less than 1 nM. For the same compound, in “Rat PK study” (20 mg/kg), the AUC(0-t) stood at 16700 ng·h/mL, the highest level (Cmax) was 2470 ng/mL, the bioavailability came to 40% and the half-life is 3.73 h. The compound also had an IC50 at 4 days in series [1] of 120000 nM. Moreover, the “IC10 (10% inhibitory concentration, hERG tail current)” value at hERG is 1000 nM.
For `COCCCOc1cc2c(cc1OC)-c1c(F)c(=O)c(C(=O)O)cn1[C@H](C(C)(C)C)C2` [Example 13], in “Rat PK study” (10 mg/kg), the area under the curve AUC(0-t) is 5840 ng·h/mL and the bioavailability is 24.1%.
In “Rat PK study” (10 mg/kg), `[2H]C([2H])([2H])Oc1cc2c(cc1OCCCOC)C[C@@H](C(C)(C)C)n1cc(C(=O)O)c(=O)c(F)c1-2` [Example 14, (S)-6-(tert-butyl)-1-fluoro-10-(methoxy-d3)-9-(3-methoxypropoxy)-2-oxo-6,7-dihydro-2H-pyrido[2,1-a]isoquinoline-3-carboxylic acid] had an exposure AUC(0-t) of 9050 ng·h/mL and a bioavailability of 61.1%. Also, the “oral PK profile (in words)” value in the series “Rat PK study” (oral dosing of 10 mg/kg, compared with Example 13) is “much better oral PK profile”.
With `CC(C)OC(=O)OCOP(=O)(CO[C@H](C)Cn1cnc2c(N)ncnc21)OCOC(=O)OC(C)C` [Tenofovir Disoproxil Fumarate, tenofovir disoproxil fumarate, reference compound], in the series on extracellular HBV DNA, the EC50 turned out to be 29.3 nM.
